This is an account of results in patent US8354522B2, “Immunostimulatory oligoribonucleotides” (Coley Pharmaceutical GmbH, priority 2005, dated 2013).

What all share (format): cell-based
One series deals with CD14-positive cell. The experiment in a line: CD80 surface marker expression upon CD14-positive cell stimulation (FACS). The note with it: human PBMC (data not shown) and CD14-positive cells, ORN complexed to DOTAP, 16 h. Here is the method:
FIG. 10 is a series of graphs showing surface marker expression upon human pDC stimulation with AU-rich or GU-rich ORN. CD123+ purified pDC (FIGS. 10a and 10b) or isolated monocytes (FIG. 10c) were incubated with 1 μM ORN complexed to 25 μg/ml DOTAP or DOTAP alone (FIG. 10a) or indicated amounts of ORN complexed to DOTAP or DOTAP alone (FIGS. 10b-10c). After 16 h cells were harvested and stained with CD123, CD11c and HLA-DR antibodies (FIGS. 10a and 10b) or CD14 and CD19 (FIG. 10c). Cell surface marker activation was measured by CD86 (FIGS. 10a and 10b) or CD80 (FIG. 10c) expression. […] FIG. 10b is a graph illustrating that CD86 surface marker expression upon human pDC stimulation is dose-dependent.
CD123+ purified pDC (FIGS. 10a and 10b) or isolated monocytes (FIG. 10c) were incubated with 1 μM ORN complexed to 25 μg/ml DOTAP or DOTAP alone (FIG. 10a) or indicated amounts of ORN complexed to DOTAP or DOTAP alone (FIGS. 10b-10c). After 16 h cells were harvested and stained with CD123, CD11c and HLA-DR antibodies (FIGS. 10a and 10b) or CD14 and CD19 (FIG. 10c). […] This activation was determined to be dose-dependent (FIG. 10b).

Another series concerns the target T1, human TLR8 (Homo sapiens, UniProt Q9NR97).
T1 construct: expressed in transfected cells
T1 sequence (Q9NR97 27-1041): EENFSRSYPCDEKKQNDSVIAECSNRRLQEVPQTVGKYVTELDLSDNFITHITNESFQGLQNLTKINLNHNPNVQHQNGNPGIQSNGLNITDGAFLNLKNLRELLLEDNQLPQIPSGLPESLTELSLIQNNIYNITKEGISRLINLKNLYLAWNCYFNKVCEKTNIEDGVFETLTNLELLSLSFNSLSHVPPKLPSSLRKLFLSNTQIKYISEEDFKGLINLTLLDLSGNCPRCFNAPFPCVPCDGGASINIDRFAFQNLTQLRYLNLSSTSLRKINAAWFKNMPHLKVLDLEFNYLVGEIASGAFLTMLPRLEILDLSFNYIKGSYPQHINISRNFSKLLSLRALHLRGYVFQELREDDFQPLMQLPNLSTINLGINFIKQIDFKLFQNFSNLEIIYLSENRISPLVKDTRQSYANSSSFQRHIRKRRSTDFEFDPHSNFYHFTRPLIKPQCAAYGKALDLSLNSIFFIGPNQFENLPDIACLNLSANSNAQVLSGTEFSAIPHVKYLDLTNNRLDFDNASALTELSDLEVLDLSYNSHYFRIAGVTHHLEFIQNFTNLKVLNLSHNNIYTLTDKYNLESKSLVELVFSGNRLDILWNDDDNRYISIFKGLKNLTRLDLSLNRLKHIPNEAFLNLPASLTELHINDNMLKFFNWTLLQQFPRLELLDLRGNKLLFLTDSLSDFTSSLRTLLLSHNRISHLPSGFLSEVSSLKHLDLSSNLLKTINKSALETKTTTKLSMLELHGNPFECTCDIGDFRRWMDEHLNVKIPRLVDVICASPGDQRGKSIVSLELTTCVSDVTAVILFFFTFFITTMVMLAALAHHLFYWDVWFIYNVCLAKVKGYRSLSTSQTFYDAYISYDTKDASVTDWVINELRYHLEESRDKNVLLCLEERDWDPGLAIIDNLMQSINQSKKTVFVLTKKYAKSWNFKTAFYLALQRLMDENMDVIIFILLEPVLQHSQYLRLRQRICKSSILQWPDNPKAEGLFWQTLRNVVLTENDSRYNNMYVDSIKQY
The series is described as follows: NFκB-luciferase reporter in HEK-293 cells stably transfected with human TLR8. The note with it: HEK-293 with human TLR8, ORN complexed to DOTAP, 16 hours. Here is the method:
Stable-transfected HEK-293 cells with NFκB-luciferase read out reporter and human TLR8 were stimulated for 16 hours with indicated ORN. After 16 hours the supernatants were removed, the cells lysed and the luciferase activity or cytokine level was measured. FIGS. 9a and 9b show fold induction of NFκB-luciferase after stimulus.
Unresponsive HEK-293 cells were stably transfected with human TLR3 or TLR8 expression plasmid and NFκB-luciferase reporter gene construct. Cells were incubated with the indicated ORN sequences (10 μM complexed to 50 μg/ml DOTAP) or control stimuli (10 μM R-848, 50 μg/ml polyIC, 3.3 μM ODN 10103 or 50 μg/ml DOTAP) for 16 hours. NFκB-activation was measured by assaying luciferase activity. Results are given as fold induction above background (medium). One representative experiment of 6 independent repetitions is presented (FIG. 9a).
Stable-transfected HEK-293 cells expressing human TLR8 were stimulated with indicated concentrations of ORN complexed to DOTAP (50 μg/ml->1/3 dilution) or DOTAP alone (50 μg/ml->1/3 dilution) for 16 hours. NFκB activation was measured by assaying luciferase activity. Results are given as fold induction above background (medium). […]
Unresponsive HEK-293 cells were stably transfected with human TLR8 expression plasmid and NFκB-luciferase reporter gene construct. […] NFκB-activation was measured by assaying luciferase activity. […]
A general note: Reporter assays use an easily measured gene product as a stand-in for the process of interest.

The test system of series [1] is Splenocytes from 3 Sprague-Dawley rats. The series is described as follows: TNF-alpha production by rat splenocytes (ELISA). Conditions: pooled rat splenocytes, ORN complexed to 62.5 μg/ml DOTAP with 1/5 dilution, 20 hours. Here is the method: Splenocytes from 3 Sprague-Dawley rats were pooled and stimulated with indicated concentrations of SEQ ID NO:21, SEQ ID NO:13 (both complexed to 62.5 μg/ml DOTAP with 1/5 dilution), R-848 or DOTAP alone (62.5 μg/ml->1/5 dilution). Supernatants were harvested after 20 hours and TNF-alpha levels were measured by ELISA.
On the technique in general: In an ELISA, binding on a coated surface is turned into a signal by an enzyme label.

As for “U*U*A*U*U*A*U*U*A*U*U*A*U*U*A*U*U*A*U*U (UUAUUAUUAUUAUUAUUAUU; chemistry not fully specified) [SEQ ID NO: 13]”, in the series on CD14-positive cell, the “CD80 surface marker expression” value is listed as “no difference in CD80 surface marker expression”. For the same substance, the “human TLR8 signaling (NFκB-luciferase fold induction)” value with human TLR8 is “Stimulate Specific Human TLR8 Signaling in a Dose Dependent Manner”. For the same substance, in series [1], the TNF-alpha production entry is “no TNF-alpha production”.

On to “U*U*G*U*U*G*U*U*G*U*U*G*U*U*G*U*U*G*U*U (UUGUUGUUGUUGUUGUUGUU; listed as RNA, chemistry not fully specified) [SEQ ID NO: 21]”, for which, in the series on CD14-positive cell, the “CD80 surface marker expression” value was “no difference in CD80 surface marker expression”. For the same substance, the “human TLR8 signaling (NFκB-luciferase fold induction)” value in the series with human TLR8 is reported as “Stimulate Specific Human TLR8 Signaling in a Dose Dependent Manner”. For the same substance, the TNF-alpha production entry in series [1] is on record as “resulted in TNF-alpha production”.
